Entries after “also recorded” stand apart in the source; their conditions may differ. Structures can show the parent of a compound that is named as a salt.
Columns and labels:
mice [1] = experiment: motility reduced by habituation to the enclosure; assay type: in vivo, mouse; settings: i.p., dose not stated
Experimental: After they have stayed in the actimeters for 18 hours, the mice (6 per dose, 12 control animals) receive CRL 41 224. They are immediately returned to their respective enclosures and, half an hour later, their motility is recorded for 30 minutes.

CNS = experiment: overall neuropsychopharmacological (CNS) profile; assay type: in vivo, mouse; rat; settings: i.p., mice and rats, dose not stated
Experimental: The neuropsychopharmacological study of CRL 41 219 was carried out as indicated above for CRL 41 224.
The neuropsychopharmacological study of CRL 41 220 was carried out in accordance with the procedures given above for CRL 41 224.

mice [2] = experiment: interaction with apomorphine in mice; assay type: in vivo, mouse; settings: i.p.; dose not stated
Experimental: Groups of 6 mice receive CRL 41 224 0.5 hour before the subcutaneous injection of 1 or 16 mg/kg of apomorphine.

rats [3] = experiment: interaction with apomorphine in rats; assay type: in vivo, rat; settings: i.p., dose not stated
Experimental: CRL 41 224 is administered to groups of 6 rats 0.5 hour before the subcutaneous injection of 0.5 mg/kg of apomorphine.

mice [4] = experiment: overall behavior and reactivities in mice; assay type: in vivo, mouse; settings: mice, i.p.; dose not stated
Experimental: (§1) Groups of three animals are observed before and then 0.25 hour, 0.50 hour, 1 hour, 2 hours, 3 hours and 24 hours after the administration of CRL 41 224.

mice [5] = experiment: motility reduced by hypoxic aggression; assay type: in vivo, mouse; settings: i.p., dose not stated
Experimental: Half an hour after they have received CRL 41 224, the mice (10 per dose, 20 control animals) are subjected to acute hypobaric anoxia [pressure reduction of 600 mm Hg (i.e. about 8×10^4 Pa) in 90 seconds; release of vacuum in 45 seconds] and are then placed in an actimeter, where their motility is recorded for 10 minutes.

mice [6] = experiment: interaction with oxotremorine; assay type: in vivo, mouse; settings: i.p.; dose not stated
Experimental: CRL 41 224 is administered to groups of 6 mice 0.5 hour before the intraperitoneal injection of 0.5 mg/kg of oxotremorine.

rats [7] = experiment: interaction with amphetamine; assay type: in vivo, rat; settings: rats, i.p.; dose not stated
Experimental: Amphetamine (2 mg/kg) is injected intraperitoneally into groups of 6 rats 30 minutes after the administration of CRL 41 224.

mice [8] = experiment: action on the behavioral despair; assay type: in vivo, mouse; settings: i.p., dose not stated
From the text: Half an hour after they have received CRL 41 224, groups of 6 mice are placed in a beaker filled with water to a height of 6 cm. The total period of immobility between the 2nd and 6th minutes following immersion is noted.

rats [9] = experiment: overall behavior and reactivities in rats; assay type: in vivo, rat; settings: i.p., dose not stated
Experimental: as §1

mice [10] = experiment: action on the spontaneous motility (actimeter); assay type: in vivo, mouse; settings: mice, i.p.; dose not stated
Experimental: 0.5 hour after they have received CRL 41 224, the mice (6 per dose, 12 control animals) are placed in an actimeter, where their motility is recorded for 30 minutes.

mice [11] = experiment: interaction with reserpine; assay type: in vivo, mouse; settings: i.p.; dose not stated
Experimental: Four hours after the intraperitoneal injection of 2.5 mg/kg of reserpine, groups of 6 mice receive CRL 41 224.

[12] = system: peripheral α-adrenergic stimulation; experiment: signs of peripheral adrenergic stimulation; assay type: in vivo, mouse; rat; settings: i.p.; dose not stated
Experimental: as §1

male mice [13] = experiment: acute toxicity, intraperitoneal (lethal doses); assay type: in vivo, mouse; settings: i.p.
Experimental: By intraperitoneal administration to male mice, the LD-30 (lethal dose for 30% of the animals tested) is of the order of 128 mg/kg and the LD-50 is of the order of about 200 mg/kg.

rats [14] = experiment: action on stereotypies in rats (α-methyltyrosine, haloperidol, reserpine); settings: i.p.
mice [15] = experiment: four plate test, traction and electric shock; assay type: in vivo, mouse; settings: i.p., dose not stated
Experimental: The test is performed on groups of 10 mice 30 minutes after the administration of CRL 41 224.

mice [16] = experiment: interaction with barbital; assay type: in vivo, mouse; settings: i.p.; dose not stated
Experimental: Half an hour after the administration of CRL 41 224, groups of 10 mice receive an intraperitoneal injection of barbital (220 mg/kg).

male mice [17] = experiment: influence of catecholamines on hyperactivity in mice; assay type: in vivo, mouse; settings: I.V.C., 10 μg
Experimental: A further series of assays was carried out on mice according to the teaching of S. L. HANDLEY et al. "Influences of catecholamines on dexamphetamine, induced changes in locomotor activity", Psychopharmacology 58, 283-288 (1978), in order to observe a potential influence of dopamine or moradrenaline on the hyperactivity induced by CRL 41 152.
After a habituation period of 1.5 h to the actimeters, male mice (grouped into batches of 10 animals each and a control batch of 20 animals) were administered (under slight anesthesia with ether) per intraventriculocerebral injection (i.e. I.V.C. route) with (i) either 10 μg of noradrenaline, or 10 μg of dopamine or 10 μl (0.5 μl/second) of saline solution, then (ii) 5 minutes later, with CRL 41 152 (in solution in distilled water) per I.P. route in a volume of 20 ml/kg, immediately before replacing the mice in the actimeters vherein their motility was recorded for 1 hour by measuring the number of crossed rays per period of 5 minutes).
Batches receiving CRL 41 152 per I.P. route with noradreanaline or dopamine per I.V.C. route were compared with (i) the control batch receiving the saline solution per I.V.C. route then distilled water per I.P. route, and (ii) batches receiving only noradrenaline, dopamine (per I.V.C. route) or CRL 41 152 (per I.P. route).

dogs = experiment: cardiovascular action in anesthetized dogs; assay type: in vivo, dog; settings: control dogs
Experimental: Four dogs (average weight: 13.8 kg), anesthetized with nembutal, receive CRL 41 220 by intraduodenal administration at successive doses of 0.1 mg/kg, 0.5 mg/kg, 1 mg/kg, 2.5 mg/kg, 5 mg/kg and 10 mg/kg. The blood pressure, the heart beat, the flow rate through the femoral artery, the flow rate through the vertebral artery and the rectal and/or skin temperature are measured and the coloration of the skin and the bile (collected by catheterization of the bile duct after ligature of the cystic duct) is observed.

LEWIS' carcinoma = LEWIS' carcinoma in mice; assay type: in vivo, mouse; settings: mice
Experimental: a. animals: consanguineous female mice (C57 BL6), b. infecting cells: 10^5 cells injected subcutaneously into the back of the animals, c. monitoring of the tumor growth by measurement of the tumor twice a week, d. evaluation of the pulmonary metastases after fixation of the lungs of the dead animals in BOUIN's fixative.
Using the same procedures, the association of CRL 41 220 with 150 mg/kg of cyclophosphamide gives the results collated in Table II below.

SMILES | motor activity after habituation to the enclosure (mice [1]) | hypothermia induced by apomorphine (mice [2]) | stereotypies induced by apomorphine (rats [3]) | excitation in mice (mice [4]) | motor recovery after hypoxic aggression (mice [5]) | hypothermia induced by oxotremorine (mice [6]) | stereotypies induced by amphetamine (rats [7]) | period of immobility or "despair" (mice [8]) | spontaneous motility / motor activity (mice [10]) | hypothermia induced by reserpine (mice [11]) | ptosis induced by reserpine (mice [11]) | mydriasis [12] | peripheral adrenergic stimulation, overall [12] | further results
CC(=O)Nc1ccc(C(=O)C(C)N(C)C)cc1 (stereo not drawn) [CRL 41 232] | distinct resumption in the motor activity of mice accustomed to their enclosure | antagonism of the hypothermia induced by apomorphine | potentiation of the stereotypies induced by apomorphine | excitation in mice | improvement in the motor recovery | antagonism of the hypothermia induced by apomorphine, reserpine and oxotremorine | potentiation of the stereotypies induced by apomorphine and amphetamine | reduction in the period of immobility | increase in the motor activity | antagonism of the hypothermia induced by apomorphine, reserpine | antagonism of the ptosis induced by reserpine | mydriasis | peripheral α-adrenergic stimulation | overall action on the CNS (CNS): behaves overall as a stimulant and antidepressant for the CNS; stereotype movements in mice (mice [4]): presence of stereotype movements in mice; stereotype movements in rats (rats [9]): presence of stereotype movements in mice and rats; exophthalmos [12]: exophthalmos; LD-0 (maximum non-lethal dose) (male mice [13]): greater than 128 mg/kg; LD-30 (male mice [13]): about 250 mg/kg
CC(=O)Nc1ccc(C(=O)C(C)NC(C)C)cc1Cl (stereo not drawn) [CRL 41 192, 1-(4-acetylamino-3-chlorophenyl)-2-isopropylaminopropanone hydrochloride] | a resumption in the motor activity of mice accustomed to their enclosure | antagonism of the hypothermia induced by apomorphine | potentiation of the stereotypies induced by apomorphine | excitation with hyperreactivity in mice | an improvement in the motor recovery in mice after acute hypoxia | antagonism of the hypothermia induced by apomorphine, oxotremorine | potentiation of the stereotypies induced by apomorphine or amphetamine | a reduction in the immobility | an increase in the spontaneous motility in mice | antagonism of the hypothermia induced by apomorphine, oxotremorine or reserpine | antagonism of the ptosis induced by reserpine | mydriasis | effects which may reflect peripheral adrenergic stimulation | overall action on the CNS (CNS; hydrochloride): stimulant effects; also recorded: antidepressant effects; suppression of induced stereotype movements by prior injection of alpha-methyltyrosine (rats [14]): not suppressed; trembling caused by oxotremorine (mice [6]): antagonism of the trembling caused by oxotremorine; convulsant effects of electric shock (mice [15]): anticonvulsant effects; sleep induced by barbital (mice [16]): antagonism of the sleep induced by barbital; stereotype movements in rats (rats [9]): stereotype movements in rats; exophthalmos [12]: absent; salivation [12]: absent
NCCc1ccc(O)c(O)c1 [dopamine, reference compound] | – | – | – | – | – | – | – | – | – | – | – | – | – | locomotor effect by comparison with saline (male mice [17]): did not cause any visible locomotor effect
CC(=O)Nc1ccc(C(=O)C(C)N2CCOCC2)cc1 (stereo not drawn) [CRL 41 236] | increase in the spontaneous motility and in the motor activity after habituation to the enclosure | antagonism of the hypothermia induced by apomorphine | potentiation of the stereotypies induced by apomorphine | excitation with hyperreactivity | improvement in the motor recovery after hypoxic aggression | antagonism of the hypothermia induced by apomorphine, reserpine and oxotremorine | potentiation of the stereotypies induced by apomorphine and amphetamine | reduction in the immobility | increase in the spontaneous motility | antagonism of the hypothermia induced by apomorphine, reserpine | antagonism of the ptosis induced by reserpine | mydriasis | peripheral α-adrenergic stimulation | overall action on the CNS (CNS): behaves as an antidepressant having stimulant and arousing properties; stereotype movements in mice (mice [4]): without the presence of stereotype movements; lethal effects of electric shock (mice [15]): seems to aggravate the lethal effects of electric shock; number of punished passes in the 4 plate test (mice [15]; mice): moderate increase in the number of punished passes; sleep induced by barbital (mice [16]): antagonism of the sleep induced by barbital; LD-0 (maximum non-lethal dose) (male mice [13]): greater than 256 mg/kg; LD-30 (male mice [13]): about 500 mg/kg
NC[C@H](O)c1ccc(O)c(O)c1 [noradrenaline, reference compound] | – | – | – | – | – | – | – | – | – | – | – | – | – | locomotor effect by comparison with saline (male mice [17]): did not cause any visible locomotor effect; systolic blood pressure with 2 μg/kg of noradrenaline, control animals (dogs; noradrenaline alone): 323 mm Hg
O=P1(N(CCCl)CCCl)NCCCO1 (stereo not drawn) [cyclophosphamide, reference compound] | – | – | – | – | – | – | – | – | – | – | – | – | – | development of tumors (LEWIS' carcinoma; 100 mg/kg): slightly slows down the development of tumors; number of pulmonary metastases (LEWIS' carcinoma; 100 mg/kg): reduces the number of pulmonary metastases; survival of the animals treated (LEWIS' carcinoma; 100 mg/kg): without however improving the survival of the animals treated; effect on process initiated by the administration of infecting cells (LEWIS' carcinoma; 150 mg/kg): distinctly opposes the process initiated by the administration of infecting cells; survival (LEWIS' carcinoma; 150 mg/kg): 2 out of 6
CC(C)NCC(O)c1ccc(O)c(O)c1 (stereo not drawn) [isoprenaline, reference compound] | – | – | – | – | – | – | – | – | – | – | – | – | – | heart beat with 10 μg/kg of isoprenaline, control animals (dogs; isoprenaline alone): 280 beats/minute
